In US20140357655A1, “SPIROINDOLINE DERIVATIVES AS GONADOTROPIN- RELEASING HORMONE RECEPTOR ANTAGONISTS” (Bayer Intellectual Property GmbH, priority 2012, published 2014):

Molecular target: T1, human GnRH receptor (Homo sapiens, UniProt P30968)
T1 sequence (P30968 1-328): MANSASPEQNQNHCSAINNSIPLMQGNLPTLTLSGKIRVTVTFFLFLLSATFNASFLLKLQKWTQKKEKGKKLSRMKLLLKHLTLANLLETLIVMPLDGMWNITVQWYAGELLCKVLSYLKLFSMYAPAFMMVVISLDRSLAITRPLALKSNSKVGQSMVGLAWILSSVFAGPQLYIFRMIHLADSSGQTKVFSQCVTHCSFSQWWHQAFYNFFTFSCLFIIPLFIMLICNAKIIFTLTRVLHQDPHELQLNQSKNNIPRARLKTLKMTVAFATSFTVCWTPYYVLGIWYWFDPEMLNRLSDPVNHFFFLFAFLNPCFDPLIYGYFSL
Assay: IP-One HTRF assay with buserelin (at EC80) stimulation
Assay type: cell-based
Details: CHO cells stably expressing human GnRH receptor, read-out: Potency in IP-One HTRF assay, given as IC50
Text: 2.3. IP-One HTRF® Assay By using homogenous time-resolved fluorescence resonance energy transfer (HTRF), the generation of one component of the GnRH—R signalling cascade can be measured. After stimulation of CHO cells stably expressing human GnRH receptor (established by Prof. Thomas Gudermann, currently University of Marburg, Germany; supplied as frozen cell aliquots by Cell Culture Services, Hamburg, Germany) with the EC80 of the GnRH agonist buserelin, Gq protein-coupled receptor signalling cascade is activated resulting in PLC-dependent cleavage of PIP2 to Inositol-1,4,5-triphosphate (IP3) and Diacylglycerol. The second messenger IP3 is degraded intracellularly to myo-inositol. Inhibition of the final degradation step from Inositol-1-phosphate (IP1) to myo-inositol by addition of lithium chloride leads to accumulation of IP1 in the cells. In cell lysates, IP1 can be detected via an antibody-based HTRF detection technology, where IP1 can displace the FRET acceptor IP1-d2 from binding by Terbium-labelled anti-IP1 antibody as donor resulting in a signal decrease. Compounds were tested for their capability of inhibiting GnRH—R activation by buserelin. For all IP-One HTRF® assays reagents of Cisbio Bioassays (IP-One Tb Jumbo kit, #62IPAPEJ; Cisbio Bioassays, Bagnols sur Cèze Cedex, France) were used.
For the assay, frozen cell aliquots were thawed and a cell suspension (3.33×10^6 cells/mL) containing IP1-d2 (dilution 1:40) was prepared and incubated at 37° C. After 1 h 3 μl of the cell suspension were added to 50 nl of a 100-fold concentrated solution of the test compound in DMSO pre-dispensed in a well of a white low-volume 384-well microtiter plate (Greiner Bio-One, Frickenhausen, Germany). […] Plates were incubated for 1 h at 37° C. and 5% carbon dioxide before the cells were lysed by adding 3 μl Terbium-labelled anti-IP1 antibody (1:40) diluted in Conjugate & Lysis buffer as supplied with the kit. After an incubation for 1 h at 22° C. to enable complete cell lysis and antibody binding to free IP1 or IP1-d2, plates were measured in an HTRF reader, e.g. a RUBYstar, PHERAstar (both BMG Labtechnologies, Offenburg, Germany) or a Viewlux (PerkinElmer LAS, Rodgau-Jügesheim, Germany).
From the fluorescence emissions at 665 nm (FRET) and at 620 nm (background signal of Terbium-antibody), the ratio (emission at 665 nm divided by emission at 620 nm) was calculated and the data were normalized (reaction without test compound=0% inhibition; all other assay components except agonist=100% inhibition). On the same microtiter plate, compounds were tested at 10 different concentrations in the range of 20 μM to 1 nM (20 μM, 6.7 μM, 2.2 μM, 0.74 μM, 0.25 μM, 82 nM, 27 nM, 9.2 nM, 3.1 nM and 1 nM; dilution series prepared before the assay at the level of the 100-fold conc. stock solutions by serial 1:3 dilutions in 100% DMSO) in duplicate values for each concentration. By using an in-house software, the IC50 values were calculated by a 4 parameter fit.

SMILES	IC50 [µM]
CC1N(S(=O)(=O)c2ccc(F)cc2)c2ccc(C(=O)NCc3ncccc3Cl)cc2C12CCOCC2 (racemic) [Example 1, N-[(3-Chloropyridin-2-yl)methyl]-1-[(4-fluorophenyl)sulfonyl]-2-methyl-1,2,2′,3′,5′,6′-hexahydrospiro[indole-3,4′-pyran]-5-carboxamide]	0.584
O=C(NCc1ccccc1Cl)c1ccc2c(c1)C1(CCSCC1)C(C1CC1)N2S(=O)(=O)c1ccc(F)cc1 (racemic) [Example 12, N-(2-Chlorobenzyl)-2-cyclopropyl-1-[(4-fluorophenyl)sulfonyl]-1,2,2′,3′,5′,6′-hexahydrospiro[indole-3,4′-thiopyran]-5-carboxamide]	0.186
O=C(NCc1ncccc1Cl)c1ccc2c(c1)C1(CCS(=O)(=O)CC1)C(C1CC1)N2S(=O)(=O)c1ccc(F)cc1 (racemic) [Example 14, N-[(3-Chloropyridin-2-yl)methyl]-2-cyclopropyl-1-[(4-fluorophenyl)sulfonyl]-1,2,2′,3′,5′,6′-hexahydrospiro[indole-3,4′-thiopyran]-5-carboxamide 1′,1′-dioxide]	0.245
CC1N(S(=O)(=O)c2ccc(F)cc2)c2ccc(C(=O)NCc3ncccc3Cl)cc2C12CCOCC2 (single isomer, unassigned) [Example 1.1, N-[(3-Chloropyridin-2-yl)methyl]-1-[(4-fluorophenyl)sulfonyl]-2-methyl-1,2,2′,3′,5′,6′-hexahydrospiro[indole-3,4′-pyran]-5-carboxamide]	0.146
CC1N(S(=O)(=O)c2ccc(F)cc2)c2ccc(C(=O)NCc3ncccc3Cl)cc2C12CCOCC2 (single isomer, unassigned) [Example 1.2, N-[(3-Chloropyridin-2-yl)methyl]-1-[(4-fluorophenyl)sulfonyl]-2-methyl-1,2,2′,3′,5′,6′-hexahydrospiro[indole-3,4′-pyran]-5-carboxamide]	19.5
CC1N(S(=O)(=O)c2ccc(F)cc2)c2ccc(C(=O)NCc3ccccc3Cl)cc2C12CCOCC2 (single isomer, unassigned) [Example 2.1, N-(2-chlorobenzyl)-1-[(4-fluorophenyl)sulfonyl]-2-methyl-1,2,2′,3′,5′,6′-hexahydrospiro[indole-3,4′-pyran]-5-carboxamide]	9.32
CC1N(S(=O)(=O)c2ccc(F)cc2)c2ccc(C(=O)NCc3ccccc3Cl)cc2C12CCOCC2 (single isomer, unassigned) [Example 2.2, N-(2-chlorobenzyl)-1-[(4-fluorophenyl)sulfonyl]-2-methyl-1,2,2′,3′,5′,6′-hexahydrospiro[indole-3,4′-pyran]-5-carboxamide]	0.083
CC1N(S(=O)(=O)c2ccc(F)cc2)c2ccc(C(=O)NCc3ncccc3C(F)(F)F)cc2C12CCOCC2 (single isomer, unassigned) [Example 3.1, 1-[(4-fluorophenyl)sulfonyl]-2-methyl-N-{[3-(trifluoromethyl)pyridin-2-yl]methyl}-1,2,2′,3′,5′,6′-hexahydrospiro[indole-3,4′-pyran]-5-carboxamide]	0.226
CC1N(S(=O)(=O)c2ccc(F)cc2)c2ccc(C(=O)NCc3ncccc3C(F)(F)F)cc2C12CCOCC2 (single isomer, unassigned) [Example 3.2, 1-[(4-fluorophenyl)sulfonyl]-2-methyl-N-{[3-(trifluoromethyl)pyridin-2-yl]methyl}-1,2,2′,3′,5′,6′-hexahydrospiro[indole-3,4′-pyran]-5-carboxamide]	> 20
O=C(NCc1ccccc1Cl)c1ccc2c(c1)C1(CCSCC1)C(C1CC1)N2S(=O)(=O)c1ccc(F)cc1 (single isomer, unassigned) [Example 12.1, N-(2-Chlorobenzyl)-2-cyclopropyl-1-[(4-fluorophenyl)sulfonyl]-1,2,2′,3′,5′,6′-hexahydrospiro[indole-3,4′-thiopyran]-5-carboxamide]	0.178
